Source: ChEMBL document CHEMBL2034882, “Synthesis, biological evaluation and molecular docking studies of novel 2-(1,3,4-oxadiazol-2-ylthio)-1-phenylethanone derivatives” (Bioorg Med Chem, 2012)

Tests used:
[1] = Inhibition of bovine brain FAK after 20 mins by turbidimetry; design: species or system Bos taurus
A-431 [2] = test: Cytotoxicity against human A431 cells after 24 hrs […] by MTT assay; type: functional, cell-based; conditions: A-431, 24 h
MCF7 = test: Cytotoxicity against human MCF7 cells after 24 hrs using Annexin VeFITC/propidium iodide staining by MTT assay; type: functional, cell-based; conditions: MCF7, 24 h
A-431 [3] = test: Induction of apoptosis in human A431 cells assessed as viable cells at 10 nM after 24 hrs using Annexin VeFITC/propidium iodide staining by flow cytometry; type: functional; conditions: A-431, 24 h, read-out: Activity
A-431 [4] = test: Induction of apoptosis in human A431 cells assessed as necrotic cells at 5 nM after 24 hrs using Annexin VeFITC/propidium iodide staining by flow cytometry; type: functional
A-431 [5] = test: Induction of apoptosis in human A431 cells assessed as early apoptotic cells at 40 nM after 24 hrs using Annexin VeFITC/propidium iodide staining by flow cytometry; type: functional
A-431 [6] = test: Induction of apoptosis in human A431 cells assessed as necrotic cells at 10 nM after 24 hrs using Annexin VeFITC/propidium iodide staining by flow cytometry; type: functional
A-431 [7] = test: Induction of apoptosis in human A431 cells assessed as late apoptotic cells at 10 nM after 24 hrs using Annexin VeFITC/propidium iodide staining by flow cytometry; type: functional
A-431 [8] = test: Induction of apoptosis in human A431 cells assessed as late apoptotic cells at 20 nM after 24 hrs using Annexin VeFITC/propidium iodide staining by flow cytometry; type: functional
A-431 [9] = test: Induction of apoptosis in human A431 cells assessed as necrotic cells at 20 nM after 24 hrs using Annexin VeFITC/propidium iodide staining by flow cytometry; type: functional
A-431 [10] = test: Induction of apoptosis in human A431 cells assessed as viable cells at 20 nM after 24 hrs using Annexin VeFITC/propidium iodide staining by flow cytometry; type: functional; conditions: A-431, 24 h, read-out: Activity
A-431 [11] = test: Induction of apoptosis in human A431 cells assessed as early apoptotic cells at 5 nM after 24 hrs using Annexin VeFITC/propidium iodide staining by flow cytometry; type: functional
A-431 [12] = test: Induction of apoptosis in human A431 cells assessed as viable cells at 5 nM after 24 hrs using Annexin VeFITC/propidium iodide staining by flow cytometry; type: functional; conditions: A-431, 24 h, read-out: Activity
A-431 [13] = test: Induction of apoptosis in human A431 cells assessed as early apoptotic cells at 20 nM after 24 hrs using Annexin VeFITC/propidium iodide staining by flow cytometry; type: functional
A-431 [14] = test: Induction of apoptosis in human A431 cells assessed as late apoptotic cells at 5 nM after 24 hrs using Annexin VeFITC/propidium iodide staining by flow cytometry; type: functional
A-431 [15] = test: Induction of apoptosis in human A431 cells assessed as early apoptotic cells at 10 nM after 24 hrs using Annexin VeFITC/propidium iodide staining by flow cytometry; type: functional
A-431 [16] = test: Induction of apoptosis in human A431 cells assessed as late apoptotic cells at 40 nM after 24 hrs using Annexin VeFITC/propidium iodide staining by flow cytometry; type: functional
A-431 [17] = test: Induction of apoptosis in human A431 cells after 24 hrs using Annexin VeFITC/propidium iodide staining by flow cytometry; type: functional, cell-based
A-431 [18] = test: Induction of apoptosis in human A431 cells assessed as necrotic cells at 40 nM after 24 hrs using Annexin VeFITC/propidium iodide staining by flow cytometry; type: functional
A-431 [19] = test: Induction of apoptosis in human A431 cells assessed as viable cells at 40 nM after 24 hrs using Annexin VeFITC/propidium iodide staining by flow cytometry; type: functional; conditions: A-431, 24 h, read-out: Activity

| SMILES | IC50 [1] [nM] | IC50 (A-431 [2]) [nM] | IC50 (MCF7) [nM] | further results |
| --- | --- | --- | --- | --- |
| CCOc1ccccc1-c1nnc(SCC(=O)c2ccc(Br)cc2)o1 | 40500 | 360 | 460 |  |
| COc1ccc(-c2nnc(SCC(=O)c3ccccc3)o2)c(O)c1 | 20500 | 180 | 280 |  |
| O=C(CSc1nnc(-c2ccccc2F)o1)c1ccccc1 | 1220 | 50 | 260 |  |
| Nc1cc(-c2nnc(SCC(=O)c3ccccc3)o2)ccn1 | 20 | 10 | 140 | viability at 0.01 µM (A-431 [3]): 61.3%; Activity (A-431 [4]): 8%; Activity (A-431 [5]): 43.51%; Activity (A-431 [6]): 9%; Activity (A-431 [7]): 12.23%; Activity (A-431 [8]): 15.26%; Activity (A-431 [9]): 6%; viability at 0.02 µM (A-431 [10]): 49.8%; Activity (A-431 [11]): 16.77%; viability at 0.005 µM (A-431 [12]): 65.8%; Activity (A-431 [13]): 28.92%; Activity (A-431 [14]): 9.47%; Activity (A-431 [15]): 17.47%; Activity (A-431 [16]): 16.65%; Activity (A-431 [17]): Dose-dependent effect; Activity (A-431 [18]): 6%; viability at 0.04 µM (A-431 [19]): 33.8% |
| CN(C)c1ccc(-c2nnc(SCC(=O)c3ccccc3)o2)cc1 | 17500 | 160 | 210 |  |
| COc1cc(OC)cc(-c2nnc(SCC(=O)c3ccccc3)o2)c1 | 650 | 40 | 170 |  |
| COc1cc(OC)cc(-c2nnc(SCC(=O)c3ccc(Br)cc3)o2)c1 | 1080 | 60 | 270 |  |
| CC(C)(C)c1ccc(-c2nnc(SCC(=O)c3ccccc3)o2)cc1 | 18600 | 170 | 50 |  |
| CN[C@@H]1C[C@H]2O[C@@](C)([C@@H]1OC)n1c3ccccc3c3c4c(c5c6ccccc6n2c5c31)C(=O)NC4 [STAUROSPORINE] |  | 70 |  |  |
| O=C(CSc1nnc(-c2ccccc2F)o1)c1ccc(Br)cc1 | 19800 | 200 | 240 |  |
| O=C(CSc1nnc(-c2cccc3ccccc23)o1)c1ccccc1 | 5800 | 130 | 230 |  |
| O=C(CSc1nnc(-c2ccnc(Cl)c2)o1)c1ccc(Br)cc1 | 970 | 50 | 270 |  |
| Cc1ccc(-c2nnc(SCC(=O)c3ccccc3)o2)c(O)c1 | 760 | 60 | 150 |  |
| Cc1ccc(-c2nnc(SCC(=O)c3ccc(Br)cc3)o2)c(O)c1 | 2670 | 50 | 2070 |  |
| O=C(CSc1nnc(-c2ccncc2)o1)c1ccc(Br)cc1 | 76300 | 780 | 4230 |  |
| O=C(CSc1nnc(-c2cccc3ccccc23)o1)c1ccc(Br)cc1 | 17900 | 160 | 260 |  |
| O=C(CSc1nnc(-c2ccncc2)o1)c1ccccc1 | 98700 | 1000 | 370 |  |
| Nc1cc(-c2nnc(SCC(=O)c3ccc(Br)cc3)o2)ccn1 | 1150 | 60 | 200 |  |
| COc1ccccc1-c1nnc(SCC(=O)c2ccccc2)o1 | 580 | 20 | 2070 |  |
| O=C(CSc1nnc(-c2ccnc(Cl)c2)o1)c1ccccc1 | 302000 | 3200 | 1290 |  |
| CN(C)c1ccc(-c2nnc(SCC(=O)c3ccc(Br)cc3)o2)cc1 | 21500 | 200 | 550 |  |
| COc1ccc(-c2nnc(SCC(=O)c3ccc(Br)cc3)o2)c(O)c1 | 35400 | 330 | 260 |  |
| CCOc1ccccc1-c1nnc(SCC(=O)c2ccccc2)o1 | 59800 | 650 | 2670 |  |
| COc1ccccc1-c1nnc(SCC(=O)c2ccc(Br)cc2)o1 | 1350 | 80 | 600 |  |
| CC(C)(C)c1ccc(-c2nnc(SCC(=O)c3ccc(Br)cc3)o2)cc1 | 9800 | 100 | 1950 |  |
